The target in test [1] is T1, human glutathione S-transferase P1-1 (GSTP1-1) (Homo sapiens, UniProt P09211).
T1 construct: made in house; host or cells: E. coli
The experiment in a line: CDNB assay of GST activity and inhibition, GST P1-1. Type of test: biochemical. Conditions: for IC50: first value of the cell GSTP1-1/GSTA1-1, CDNB assay, 20 nM GST; for fold greater affinity for GSTP1-1 (lower IC50) than the ligand domain alone: versus corresponding ligand domain (GS-NB/IId, IIg, IIId, IVk). As to the method: (§1) GST isozymes. […] The enzyme was incubated with 10 mM dithiothreitol to ensure complete reduction of cysteine residues, followed by extensive dialysis to remove the reducing agent. […] Plasmodium GST (pGST) was a gift from Dr. Katja Becker (Justus Liebig University of Giessen), and murine GSTP and GSTA were gifts from Dr. Dave Eaton (University of Washington). Except where otherwise stated (i.e. testing of pGST in Example 6.4.5 and testing of murine GSTs in Example 6.4.7), GST isozymes tested were from human.
(§2) GST assays. Assays of GST activity and inhibition were performed with chloro-2,4-dinitrobenzene (CDNB) as the electrophilic substrate. Except where otherwise stated, GST concentration was 20 nM. […] Rates were determined by measuring absorption at 340 nm (λmax of glutathione-dinitrobenzene) for 1 minute on a Beckman DU 7400 spectrophotometer. For IC50 determinations, assays were performed at inhibitor concentrations ranging over at least […] (from 100-fold above the IC50 to 100-fold below). Data were fit to a sigmoidal dose-response function using GraphPad Prism to determine the 50% inhibitory concentration.

For test [2], the target named is T2, human glutathione S-transferase A1-1 (GSTA1-1) (Homo sapiens, UniProt P08263).
T2 construct: made in house; host or cells: E. coli
T2 sequence (P08263 1-222): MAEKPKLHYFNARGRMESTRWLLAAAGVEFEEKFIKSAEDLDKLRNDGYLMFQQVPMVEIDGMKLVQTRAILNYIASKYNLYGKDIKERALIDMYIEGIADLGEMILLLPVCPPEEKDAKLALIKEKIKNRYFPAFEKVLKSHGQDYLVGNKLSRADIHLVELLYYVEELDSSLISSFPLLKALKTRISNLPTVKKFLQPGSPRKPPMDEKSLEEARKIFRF
The experiment in a line: CDNB assay of GST activity and inhibition, GST A1-1. Type of test: biochemical. The settings on record: second value of the cell GSTP1-1/GSTA1-1, 20 nM GST. As to the method:
as §1, §2

Values joined by “and” are separate entries in the source; they are usually repeats but may differ in a detail not shown here. Identical values can stand only once.

T1 sequence (P09211 2-210 limits assumed): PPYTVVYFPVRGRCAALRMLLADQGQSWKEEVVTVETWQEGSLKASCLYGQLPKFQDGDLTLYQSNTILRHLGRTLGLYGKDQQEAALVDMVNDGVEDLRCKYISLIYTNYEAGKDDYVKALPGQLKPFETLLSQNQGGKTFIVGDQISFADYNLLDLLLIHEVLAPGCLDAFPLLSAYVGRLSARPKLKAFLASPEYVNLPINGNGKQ

On to `Nc1c(S(=O)(=O)O)cc(Nc2cccc(S(=O)(=O)CCNCCOCCOCCNCCS(=O)(=O)c3cccc(Nc4cc(S(=O)(=O)O)c(N)c5c4C(=O)c4ccccc4C5=O)c3)c2)c2c1C(=O)c1ccccc1C2=O` [IIIa], for which the IC50 in test [1] is 44 nM; in test [2] it was above 100000 nM.
In the same order, the values of `Nc1c(S(=O)(=O)O)cc(Nc2cccc(S(=O)(=O)CCNCCOCCOCCOCCNCCS(=O)(=O)c3cccc(Nc4cc(S(=O)(=O)O)c(N)c5c4C(=O)c4ccccc4C5=O)c3)c2)c2c1C(=O)c1ccccc1C2=O` [IIIb] are 72 nM and above 100000 nM.
In the same order, the values of `Nc1c(S(=O)(=O)O)cc(Nc2cccc(S(=O)(=O)CCNCCCNC(=O)c3cccc(C(=O)NCCCNCCS(=O)(=O)c4cccc(Nc5cc(S(=O)(=O)O)c(N)c6c5C(=O)c5ccccc5C6=O)c4)c3)c2)c2c1C(=O)c1ccccc1C2=O` [IIIc] are 440 nM and above 100000 nM.
Turning to `CCNCCS(=O)(=O)c1cccc(Nc2cc(S(=O)(=O)O)c(N)c3c2C(=O)c2ccccc2C3=O)c1` [IIId*, reference compound], the results for the IC50 in test [1] and in test [2] were 5000 nM and above 100000 nM, respectively.
On to `NC(=O)c1cc(CNCCS(=O)(=O)c2cccc(Nc3cc(S(=O)(=O)O)c(N)c4c3C(=O)c3ccccc3C4=O)c2)cc(CNCCS(=O)(=O)c2cccc(Nc3cc(S(=O)(=O)O)c(N)c4c3C(=O)c3ccccc3C4=O)c2)c1` [IIIe], for which the IC50 was 557 nM in test [1] and above 10000 nM in test [2].
In the same order, the values of `NC(=O)c1cc(CNC(=O)CNCCS(=O)(=O)c2cccc(Nc3cc(S(=O)(=O)O)c(N)c4c3C(=O)c3ccccc3C4=O)c2)cc(CNC(=O)CNCCS(=O)(=O)c2cccc(Nc3cc(S(=O)(=O)O)c(N)c4c3C(=O)c3ccccc3C4=O)c2)c1` [IIIf] are 437 nM and above 1000 nM.
For `NC(=O)c1cc(CNC(=O)CCNCCS(=O)(=O)c2cccc(Nc3cc(S(=O)(=O)O)c(N)c4c3C(=O)c3ccccc3C4=O)c2)cc(CNC(=O)CCNCCS(=O)(=O)c2cccc(Nc3cc(S(=O)(=O)O)c(N)c4c3C(=O)c3ccccc3C4=O)c2)c1` [IIIg], in that order: 162 nM and 2500 nM.
`NC(=O)c1cc(CNC(=O)CCCNCCS(=O)(=O)c2cccc(Nc3cc(S(=O)(=O)O)c(N)c4c3C(=O)c3ccccc3C4=O)c2)cc(CNC(=O)CCCNCCS(=O)(=O)c2cccc(Nc3cc(S(=O)(=O)O)c(N)c4c3C(=O)c3ccccc3C4=O)c2)c1` [IIIh]: in test [1], the IC50 is ~22 nM and 22 nM; the “fold greater affinity for GSTP1-1 (lower IC50) than the ligand domain alone” value is on record as “approximately 220 fold”. The compound further displayed an IC50 in test [2] above 1000 nM.
As for `NC(=O)c1cc(CNC(=O)CCCCCNCCS(=O)(=O)c2cccc(Nc3cc(S(=O)(=O)O)c(N)c4c3C(=O)c3ccccc3C4=O)c2)cc(CNC(=O)CCCCCNCCS(=O)(=O)c2cccc(Nc3cc(S(=O)(=O)O)c(N)c4c3C(=O)c3ccccc3C4=O)c2)c1` [IIIi], the IC50 is 203 nM in test [1] and above 1000 nM in test [2].
Consider `NC(=O)c1cc(CNC(=O)CCCCCCCNCCS(=O)(=O)c2cccc(Nc3cc(S(=O)(=O)O)c(N)c4c3C(=O)c3ccccc3C4=O)c2)cc(CNC(=O)CCCCCCCNCCS(=O)(=O)c2cccc(Nc3cc(S(=O)(=O)O)c(N)c4c3C(=O)c3ccccc3C4=O)c2)c1` [IIIj], for which the IC50 was 267 nM in test [1] and above 220 nM in test [2].
For the compound `NC(=O)c1cccc(CNC(=O)CCCNCCS(=O)(=O)c2cccc(Nc3cc(S(=O)(=O)O)c(N)c4c3C(=O)c3ccccc3C4=O)c2)c1` [IIIl*, reference compound], in test [1], half-maximal inhibition (IC50) was put at 854 nM and the “fold greater affinity for GSTP1-1 (lower IC50) than the ligand domain alone” value is “approximately 6 fold”. Further, the IC50 in test [2] is above 20000 nM.
Consider `NC(CCC(=O)NC(CSc1ccc(C(=O)OCCOCCOCCOCCOC(=O)c2ccc(SCC(NC(=O)CCC(N)C(=O)O)C(=O)NCC(=O)O)c([N+](=O)[O-])c2)cc1[N+](=O)[O-])C(=O)NCC(=O)O)C(=O)O` (stereo not drawn) [IIa], for which the IC50 in test [1] came to 4500 nM; in test [2], 29000 nM.
For `NC(CCC(=O)NC(CSc1ccc(C(=O)OCCOC(=O)c2cccc(C(=O)OCCOC(=O)c3ccc(SCC(NC(=O)CCC(N)C(=O)O)C(=O)NCC(=O)O)c([N+](=O)[O-])c3)c2)cc1[N+](=O)[O-])C(=O)NCC(=O)O)C(=O)O` (stereo not drawn) [IIb], in that order: 2900 nM and 1600 nM.
In the same order, the values of `NC(CCC(=O)NC(CSc1ccc(C(=O)OCCCOC(=O)c2cccc(C(=O)OCCCOC(=O)c3ccc(SCC(NC(=O)CCC(N)C(=O)O)C(=O)NCC(=O)O)c([N+](=O)[O-])c3)c2)cc1[N+](=O)[O-])C(=O)NCC(=O)O)C(=O)O` (stereo not drawn) [IIc] are 280 nM and 3300 nM.
`CCOC(=O)c1ccc(SCC(NC(=O)CCC(N)C(=O)O)C(=O)NCC(=O)O)c([N+](=O)[O-])c1` (stereo not drawn) [IId*, reference compound]: the IC50 amounted to 21000 nM in test [1] and 30000 nM in test [2]. Besides, in test [1] (in words), the “isozyme specificity GSTP1-1 versus GSTA1-1” value is “no substantial isozyme specificity”.
As to `CCC(CSCC(NC(=O)CCC(N)C(=O)O)C(=O)NCC(=O)O)C(=O)c1ccc(OCC(=O)NCCCC(=O)NCc2cc(CNC(=O)CCCNC(=O)COc3ccc(C(=O)C(CC)CSCC(NC(=O)CCC(N)C(=O)O)C(=O)NCC(=O)O)c(Cl)c3Cl)cc(C(N)=O)c2)c(Cl)c1Cl` (stereo not drawn) [IIe], the half-inhibitory concentration (IC50) came out at 353 nM in test [1] and 3.8 nM in test [2]. Also, the “fold greater affinity for GSTP1-1 (lower IC50) than the ligand domain alone” value in test [1] is given as 30 fold.
In the case of `CCC(CSCC(NC(=O)CCC(N)C(=O)O)C(=O)NCC(=O)O)C(=O)c1ccc(OCC(=O)NCCCC(=O)NCc2cccc(C(N)=O)c2)c(Cl)c1Cl` (stereo not drawn) [IIf*, reference compound], the values for the IC50 in test [1] and in test [2] were 1500 nM and 5830 nM, respectively.
`C=C(CC)C(=O)c1ccc(OCC(=O)Nc2cccc(NC(=O)COc3ccc(C(=O)C(=C)CC)c(Cl)c3Cl)c2)c(Cl)c1Cl` [IVa, Bis-1,3-ethacrynyl-phenylenediamine]: the IC50 was above 10000 nM in test [1] and 741 nM in test [2].
Turning to `C=C(CC)C(=O)c1ccc(OCC(=O)Nc2ccc(NC(=O)COc3ccc(C(=O)C(=C)CC)c(Cl)c3Cl)cc2)c(Cl)c1Cl` [IVb, Bis-1,4-ethacrynyl-phenylenediamine], the concentration for half-maximal inhibition (IC50) in test [1] was above 10000 nM; in test [2] it was 1310 nM.
In the same order, the values of `C=C(CC)C(=O)c1ccc(OCC(=O)NCc2cc(CNC(=O)COc3ccc(C(=O)C(=C)CC)c(Cl)c3Cl)cc(C(N)=O)c2)c(Cl)c1Cl` [IVc] are 992 nM and 29.7 nM.
On to `C=C(CC)C(=O)c1ccc(OCC(=O)NCC(=O)NCc2cc(CNC(=O)CNC(=O)COc3ccc(C(=O)C(=C)CC)c(Cl)c3Cl)cc(C(N)=O)c2)c(Cl)c1Cl` [IVd], for which the IC50 in test [1] turned out to be 634 nM; in test [2], 23 nM.
On to `C=C(CC)C(=O)c1ccc(OCC(=O)NCCC(=O)NCc2cc(CNC(=O)CCNC(=O)COc3ccc(C(=O)C(=C)CC)c(Cl)c3Cl)cc(C(N)=O)c2)c(Cl)c1Cl` [IVe], for which the IC50 in test [1] is 1200 nM; in test [2], 12 nM and 12.3 nM.
Consider `C=C(CC)C(=O)c1ccc(OCC(=O)NCCCC(=O)NCc2cc(CNC(=O)CCCNC(=O)COc3ccc(C(=O)C(=C)CC)c(Cl)c3Cl)cc(C(N)=O)c2)c(Cl)c1Cl` [IVf], for which the IC50 in test [1] came out at 589 nM; in test [2], 14 nM.
Take `C=C(CC)C(=O)c1ccc(OCC(=O)NCCCCCCCC(=O)NCc2cc(CNC(=O)CCCCCCCNC(=O)COc3ccc(C(=O)C(=C)CC)c(Cl)c3Cl)cc(C(N)=O)c2)c(Cl)c1Cl` [IVh]: in test [1], the IC50 is 31 nM and the “fold greater affinity for GSTP1-1 (lower IC50) than the ligand domain alone” value was “approximately 129 fold”. For the same compound, in test [1] (versus IVj), the “fold lower IC50 for GSTP1-1 than the monovalent inhibitor” value came out at 403 fold. In test [2], the IC50 is 54 nM.
With `NC(CCC(=O)NC(CSCCCCCCCCOC(=O)CCCCCCCSCC(NC(=O)CCC(N)C(=O)O)C(=O)NCC(=O)O)C(=O)NCC(=O)O)C(=O)O` (stereo not drawn) [Ia], the half-maximal inhibitory concentration (IC50) in test [1] is 360 nM; in test [2], 200 nM.
On to `NC(CCC(=O)NC(CSCCCCCCCCCOC(=O)CCCCCCCSCC(NC(=O)CCC(N)C(=O)O)C(=O)NCC(=O)O)C(=O)NCC(=O)O)C(=O)O` (stereo not drawn) [Ib], for which the IC50 in test [1] worked out at 300 nM; in test [2] it was 340 nM.
In the same order, the values of `NC(CCC(=O)NC(CSCCCCCCCCCCOC(=O)CCCCCCCSCC(NC(=O)CCC(N)C(=O)O)C(=O)NCC(=O)O)C(=O)NCC(=O)O)C(=O)O` (stereo not drawn) [Ic] are 80 nM and 160 nM.
In the same order, the values of `NC(CCC(=O)NC(CSCCCCCCCCCCCOC(=O)CCCCCCCSCC(NC(=O)CCC(N)C(=O)O)C(=O)NCC(=O)O)C(=O)NCC(=O)O)C(=O)O` (stereo not drawn) [Id] are 200 nM and 110 nM.
In the same order, the values of `NC(CCC(=O)NC(CSCCCCCCCCCCCCOC(=O)CCCCCCCSCC(NC(=O)CCC(N)C(=O)O)C(=O)NCC(=O)O)C(=O)NCC(=O)O)C(=O)O` (stereo not drawn) [Ie] are 190 nM and 140 nM.
For the compound `COC(=O)CCCCCCCSCC(NC(=O)CCC(N)C(=O)O)C(=O)NCC(=O)O` (stereo not drawn) [If*, reference compound], the IC50 in test [1] and in test [2] was 3800 nM each time.

For the origin of these results see patent publication US20050004038A1, “Bivalent inhibitors of Glutathione-S-Transferases” (priority 2003, published 2005).
